From patent US20030229125A1, “Herbicidal substituted pyridines, their preparation, and their use as herbicides and plant growth regulators” (priority 2001, published 2003)

Tests used:
[1] = test system: Sinapis alba, Chrysanthemum segetum, Avena sativa, Stellaria media, Echinochloa crus-galli, Lolium multiflorum, Setaria spp., Abutilon theophrasti, Amaranthus …; assay: Pre-emergence effect on weeds (greenhouse pot test, visual scoring); assay type: in vivo, mono- and dicotyledonous weed plants; conditions: application rate of 1 kg or less of active substance per hectare; visually scored after 3 to 4 weeks vs untreated controls
Description: Seeds or rhizome pieces of mono- and dicotyledonous weed plants were placed in sandy loam soil in plastic pots and covered with soil. The compounds according to the invention, formulated in the form of wettable powders or emulsion concentrates, were then applied to the soil cover in the form of aqueous suspensions or emulsions at an application rate of 600 to 800 l of water/ha (converted), in various dosages. After the treatment, the pots were placed in a greenhouse and kept under good growth conditions for the weeds. After the test plants had emerged, the damage to the plants or the negative effect on the emergence was visually scored after a test period of 3 to 4 weeks by comparison with untreated controls. As shown by the test results, the compounds according to the invention have good herbicidal pre-emergence activity against a broad spectrum of week grasses and broad-leaved weeds.

[2] = test system: Sinapis alba, Echinochloa crus-galli, Lolium multiflorum, Chrysanthemum segetum, Setaria spp., Abutilon theophrastic, Amaranthus retroflexus, Panicum miliaceum …; assay: Post-emergence effect on weeds (greenhouse pot test, visual scoring); assay type: in vivo, mono- and dicotyledonous weeds; conditions: application rate of 1 kg or less of active substance per hectare; treated at three-leaf stage; scored visually after about 3 to 4 weeks
Procedure: Seeds or rhizome pieces of mono- and dicotyledonous weeds were placed in sandy loam soil in plastic pots, covered with soil and grown in a greenhouse under good growth conditions. Three weeks after sowing, the test plants were treated at the three-leaf stage. The compounds according to the invention, formulated as wettable powders or emulsion concentrates, were sprayed, at various dosages, onto the green parts of the plants at an application rate of 600 to 800 l of water/ha (converted). After the test plants had remained in the greenhouse for about 3 to 4 weeks under optimum growth conditions, the effect of the preparations was scored visually by comparison with untreated controls. The agents according to the invention also have good herbicidal activity post-emergence against a broad spectrum of economically important weed grasses and broad-leaved weeds.

CCN(Cc1cccc(Oc2cc(C(F)(F)F)nn2C)n1)S(C)(=O)=O [Example 4]
herbicidal activity pre-emergence against weed plants [1]: very good herbicidal activity | herbicidal activity post-emergence against weed plants [2]: very good herbicidal activity
